The nature of the experiment: Inhibitory activity against IgE receptor.

As usually defined, the IC50 is the concentration that inhibits the measured activity by half. The low end stands for greater potency in that assay, the high end for weaker potency in that assay. As to `NC(=O)[C@H](Cc1ccccc1)NC(=O)[C@H](Cc1cc2ccccc2s1)[C@H](O)C(=O)NO` [(2R,3S)-2-Benzo[b]thiophen-2-ylmethyl-N*1*-((S)-1-carbamoyl-2-phenyl-ethyl)-3,N*4*-dihydroxy-succinamide], it took 20 nM to reach half-maximal inhibition (IC50).
The result for `CC(C)(C)[C@H](NC(=O)C(C[C@@H]1CCc2ccccc2C1)[C@H](O)C(=O)NO)C(N)=O` (some centres not stated) reads 70 nM.
`CNC(=O)[C@H](Cc1ccccc1)NC(=O)[C@H](Cc1csc2ccccc12)[C@H](O)C(=O)NO` [(2R,3S)-2-Benzo[b]thiophen-3-ylmethyl-3,N*4*-dihydroxy-N*1*-((S)-1-methylcarbamoyl-2-phenyl-ethyl)-succinamide] gave an IC50 of more than 1000 nM.
On to `CNC(=O)[C@H](Cc1ccccc1)NC(=O)[C@H](Cc1cc2ccccc2o1)[C@H](O)C(=O)NO` [(2R,3S)-2-Benzofuran-2-ylmethyl-3,N*4*-dihydroxy-N*1*-((S)-1-methylcarbamoyl-2-phenyl-ethyl)-succinamide], for which the IC50 was determined as 100 nM.
`NC(=O)[C@H](Cc1ccccc1)NC(=O)[C@H](Cc1ccc2ccccc2c1)[C@H](O)C(=O)NO` [(2R,3S)-N*4*-((S)-1-Carbamoyl-2-phenyl-ethyl)-2,N*1*-dihydroxy-3-naphthalen-2-ylmethyl-succinamide]: the midpoint of inhibition, the IC50, lay at 600 nM.
The result for `CC(C)(C)[C@H](NC(=O)[C@H](Cc1ccc2cc(F)c(F)cc2c1)[C@H](O)C(=O)NO)C(N)=O` [(2R,3S)-N*1*-((S)-1-Carbamoyl-2,2-dimethyl-propyl)-2-(6,7-difluoro-naphthalen-2-ylmethyl)-3,N*4*-dihydroxy-succinamide] reads more than 1000 nM; that for `CC(C)(C)[C@H](NC(=O)C(C[C@H]1CCc2ccccc2C1)[C@H](O)C(=O)NO)C(N)=O` (some centres not stated), 70 nM.
The result for `NC(=O)[C@H](Cc1ccccc1)NC(=O)[C@H](Cc1nc2ccccc2s1)[C@H](O)C(=O)NO` [(2R,3S)-2-Benzothiazol-2-ylmethyl-N*1*-((S)-1-carbamoyl-2-phenyl-ethyl)-3,N*4*-dihydroxy-succinamide] reads 320 nM.
With `NC(=O)[C@H](Cc1ccccc1)NC(=O)[C@H](Cc1ccc2cc(F)ccc2c1)[C@H](O)C(=O)NO` [(2R,3S)-N*1*-((S)-1-Carbamoyl-2-phenyl-ethyl)-2-(6-fluoro-naphthalen-2-ylmethyl)-3,N*4*-dihydroxy-succinamide], it took 220 nM to reach half-maximal inhibition (IC50).
To `CC(C)(C)[C@H](NC(=O)[C@H](Cc1cnc2ccccc2c1)[C@H](O)C(=O)NO)C(N)=O` [(2R,3S)-N*4*-((S)-1-Carbamoyl-2,2-dimethyl-propyl)-2,N*1*-dihydroxy-3-quinolin-3-ylmethyl-succinamide] belongs 20 nM; to `NC(=O)[C@H](Cc1ccccc1)NC(=O)[C@H](Cc1sc2ccccc2c1Cl)[C@H](O)C(=O)NO` [(2R,3S)-N*1*-((S)-1-Carbamoyl-2-phenyl-ethyl)-2-(3-chloro-benzo[b]thiophen-2-ylmethyl)-3,N*4*-dihydroxy-succinamide], more than 10000 nM; to `CNC(=O)[C@@H](NC(=O)[C@H](Cc1ccc2c(c1)CCCC2)[C@H](O)C(=O)NO)C(C)(C)C` [(2R,3S)-N*4*-((S)-2,2-Dimethyl-1-methylcarbamoyl-propyl)-2,N*1*-dihydroxy-3-(5,6,7,8-tetrahydro-naphthalen-2-ylmethyl)-succinamide], more than 10000 nM.
The result for `CNC(=O)[C@H](Cc1ccccc1)NC(=O)[C@H](Cc1ccc2ccccc2c1)[C@H](O)C(=O)NO` [(2R,3S)-2,N*1*-Dihydroxy-N*4*-((S)-1-methylcarbamoyl-2-phenyl-ethyl)-3-naphthalen-2-ylmethyl-succinamide] reads 400 nM.
Take `CC(C)(C)[C@H](NC(=O)[C@H](Cc1ccc2ccc(F)cc2c1)[C@H](O)C(=O)NO)C(N)=O` [(2R,3S)-N*1*-((S)-1-Carbamoyl-2,2-dimethyl-propyl)-2-(7-fluoro-naphthalen-2-ylmethyl)-3,N*4*-dihydroxy-succinamide]: it took 80 nM to reach half-maximal inhibition (IC50).
The result for `NC(=O)[C@H](Cc1ccccc1)NC(=O)[C@H](Cc1ccc2ccc(OCc3ccccc3)cc2c1)[C@H](O)C(=O)NO` [(2R,3S)-2-(7-Benzyloxy-naphthalen-2-ylmethyl)-N*1*-((S)-1-carbamoyl-2-phenyl-ethyl)-3,N*4*-dihydroxy-succinamide] reads more than 20000 nM; that for `CC(C)(C)[C@H](NC(=O)[C@H](Cc1ccc2ccccc2c1)[C@H](O)C(=O)NO)C(N)=O` [(2R,3S)-N*4*-((S)-1-Carbamoyl-2,2-dimethyl-propyl)-2,N*1*-dihydroxy-3-naphthalen-2-ylmethyl-succinamide], 20 nM.
To `CNC(=O)[C@@H](NC(=O)[C@H](Cc1ccc2ccccc2c1)[C@H](O)C(=O)NO)C(C)(C)C` [(2R,3S)-N*4*-((S)-2,2-Dimethyl-1-methylcarbamoyl-propyl)-2,N*1*-dihydroxy-3-naphthalen-2-ylmethyl-succinamide] belongs 230 nM; to `NC(=O)[C@H](Cc1ccccc1)NC(=O)[C@H](Cc1ccc2ccc(O)cc2c1)[C@H](O)C(=O)NO` [(2R,3S)-N*4*-((S)-1-Carbamoyl-2-phenyl-ethyl)-2,N*1*-dihydroxy-3-(7-hydroxy-naphthalen-2-ylmethyl)-succinamide], 760 nM.
As for `NC(=O)[C@H](Cc1ccccc1)NC(=O)[C@H](Cc1ccc2ccc(F)cc2c1)[C@H](O)C(=O)NO` [(2R,3S)-N*1*-((S)-1-Carbamoyl-2-phenyl-ethyl)-2-(7-fluoro-naphthalen-2-ylmethyl)-3,N*4*-dihydroxy-succinamide], the IC50 stood at 100 nM.
To `O=C(C[C@@H](Cc1ccc2ccccc2c1)C(=O)N[C@@H](Cc1ccccc1)C(=O)NCc1ccccc1)NO` [(R)-N*1*-((S)-1-Benzylcarbamoyl-2-phenyl-ethyl)-N*4*-hydroxy-2-naphthalen-2-ylmethyl-succinamide] belongs 1000 nM.
To `CC(C)(C)[C@H](NC(=O)[C@H](Cc1ccc2ncccc2c1)[C@H](O)C(=O)NO)C(N)=O` [(2R,3S)-N*4*-((S)-1-Carbamoyl-2,2-dimethyl-propyl)-2,N*1*-dihydroxy-3-quinolin-6-ylmethyl-succinamide] belongs 1000 nM.
To `CNC(=O)[C@H](Cc1ccccc1)NC(=O)[C@H](Cc1cc2cccc(OC)c2o1)[C@H](O)C(=O)NO` [(2R,3S)-2,N*1*-Dihydroxy-3-(7-methoxy-benzofuran-2-ylmethyl)-N*4*-((S)-1-methylcarbamoyl-2-phenyl-ethyl)-succinamide] belongs more than 20000 nM.

The values above are taken from BindingDB's records for doi:10.1016/s0960-894x(99)00552-1 (Smithkline Beecham Pharmaceuticals, 1999).
